US20220143035A1, “METHODS FOR TREATING AUTOIMMUNE OR AUTOINFLAMMATORY DISEASE” (UNIVERSITY OF WASHINGTON, priority 2019, published 2022)

Assays:
Format in all cases: cell-based, human
[1] = test system: histone H2AX on serine 139 (γ-H2AX); assay: Western blot of γ-H2AX phosphorylation in CT DNA-treated STING KO U937 cells; conditions: PMA-differentiated STING KO U937 cells, CT DNA 16 hours; Ku-60019 0.125-1 μM, Nu-7441 0.25-2 μM; FIG. 4A
Protocol: (§1) FIG. 4A-K: Human DNA-PK is essential for the SIDSP. (A) PMA-differentiated STING KO U937 cells were treated with CT DNA for 16 hours in the presence of DMSO control, increasing concentrations of Ku-60019 ATM inhibitor [0.125, 0.25, 0.5, 1 μM], or Nu-7441 DNA-PK inhibitor [0.25, 0.5, 1, 2 μM], followed by western blot analysis of γ-H2AX phosphorylation. (B) PMA-differentiated STING KO U937 cells were treated with CT DNA for 16 hours in the presence of inhibitors as described in (A), followed by RT-qPCR analysis of IFNB1 mRNA expression. n.s.: not significant; ***:p<0.001. n=3 independent treatments per condition. (C) PMA-differentiated STING KO U937 cells were treated with CT DNA or RIG-I ligand in the presence of DMSO or Nu-7441 for 16 hours, followed by RT-qPCR analysis of IFNB1 mRNA expression. n.s.: not significant; ***:p<0.001. n=3 independent treatments per condition. […] (F) Primary human foreskin fibroblasts (HFF) and primary human hepatocytes from male (♂) and female (♀) donors were assessed for cGAS, STING, and DNA-PK proteins by fractionation into cytosol (C) and nuclear (N) extracts, followed by western blot. […] Multiple t-tests with significance determined by the Holm-Sidak method were used to compare IFNB1 in DMSO versus Nu7441 treated cells. *:p<0.05, ****:P<.0001. n=3 independent treatments per condition. […]

[2] = test system: STING-independent DNA sensing pathway (SIDSP); assay: RT-qPCR of IFNB1 mRNA in CT DNA-treated STING KO U937 cells; conditions: PMA-differentiated STING KO U937 cells, CT DNA 16 hours; for SIDSP activation (IFNB1 mRNA expression): Ku-60019 0.125-1 μM, Nu-7441 0.25-2 μM, FIG. 4B
Protocol: FIG. 4A-K: Human DNA-PK is essential for the SIDSP. (A) PMA-differentiated STING KO U937 cells were treated with CT DNA for 16 hours in the presence of DMSO control, increasing concentrations of Ku-60019 ATM inhibitor [0.125, 0.25, 0.5, 1 μM], or Nu-7441 DNA-PK inhibitor [0.25, 0.5, 1, 2 μM], followed by western blot analysis of γ-H2AX phosphorylation. (B) PMA-differentiated STING KO U937 cells were treated with CT DNA for 16 hours in the presence of inhibitors as described in (A), followed by RT-qPCR analysis of IFNB1 mRNA expression. n.s.: not significant; ***:p<0.001. n=3 independent treatments per condition. (C) PMA-differentiated STING KO U937 cells were treated with CT DNA or RIG-I ligand in the presence of DMSO or Nu-7441 for 16 hours, followed by RT-qPCR analysis of IFNB1 mRNA expression. n.s.: not significant; ***:p<0.001. n=3 independent treatments per condition. (D) Western blot analysis of DNA-PK and STING in clonal lines of H1 control, STING KO and STING/DNA-PK DKO U937 cells. (E) PMA-differentiated STING KO and STING/DNA-PK DKO U937 cells were treated with CT DNA for 16 hours in DMSO or 2 μM Nu-7441, followed by RT-qPCR analysis of IFNB1 mRNA expression, normalized to Lipo control-treated cells. **:p<0.01. n=3 independent treatments per condition. (F) Primary human foreskin fibroblasts (HFF) and primary human hepatocytes from male (♂) and female (♀) donors were assessed for cGAS, STING, and DNA-PK proteins by fractionation into cytosol (C) and nuclear (N) extracts, followed by western blot. The nuclear extract was treated with salt-active nuclease to remove genomic DNA. (G) The indicated cell lines were stimulated with cGAMP for 16 hours before harvest and RT-qPCR analysis of IFNB1 mRNA expression. […] Multiple t-tests with significance determined by the Holm-Sidak method were used to compare IFNB1 in DMSO versus Nu7441 treated cells. *:p<0.05, ****:P<.0001. n=3 independent treatments per condition. […]

WT U937 cells = assay: Global mRNA-Seq analysis in WT (H1 control) U937 cells
Source text: FIG. 5A-F: The DNA-PK SIDSP activates a broad gene expression program. (A) Heat map representation of log 2 Fold Change in gene expression for the 124 antiviral response genes with significant differential expression in one of the four comparisons. The key includes a histogram in cyan plotting the distribution of log 2 Fold Change values for all the included genes. Data represent the average of three independent treatments per condition. […] Data represent the average of three independent treatments per condition. […] Data represent the average of three independent treatments per condition. (D) In H1 control U937 cells, the 16 hour CT DNA-activated log 2 Fold Change was plotted for DMSO control-treated cells on the x-axis and for Nu-7441-treated cells on the y-axis. Each dot represents a single gene that was differentially expressed at 16 hours in DMSO-treated cells (n=1024). […]
FIG. 8A-E: Normalized mRNA-Seq data comparing WT and STING KO U937 cells. (A) Boxplot depicting normalized read counts in log 2CPM format across all 36 samples. […] (C) Normalized read counts in log 2CPM format, comparing Lipo-treated WT U937 cells to Lipo-treated STING KO U937 cells. (D) Normalized read counts in log 2CPM format, comparing Lipo-treated WT U937 cells pretreated with DMSO or 2 μM N-7441. (E) Normalized read counts in log 2CPM format, comparing Lipo-treated STING KO cells pretreated with DMSO or 2 μM N-7441. […]

[3] = test system: RNA-activated RIG-I-MAVS pathway; assay: RT-qPCR of IFNB1 mRNA in RIG-I ligand-treated STING KO U937 cells; conditions: PMA-differentiated STING KO U937 cells, RIG-I ligand 16 hours, DMSO or Nu-7441; FIG. 4C
Protocol: as §1

[4] = test system: STING KO U937 cells (DNA-PK SIDSP); assay: Global mRNA-Seq analysis in STING KO U937 cells
Source text: (A) Heat map representation of log 2 Fold Change in gene expression for the 124 antiviral response genes with significant differential expression in one of the four comparisons. The key includes a histogram in cyan plotting the distribution of log 2 Fold Change values for all the included genes. Data represent the average of three independent treatments per condition. […] Data represent the average of three independent treatments per condition. […] Data represent the average of three independent treatments per condition. (D) In H1 control U937 cells, the 16 hour CT DNA-activated log 2 Fold Change was plotted for DMSO control-treated cells on the x-axis and for Nu-7441-treated cells on the y-axis. Each dot represents a single gene that was differentially expressed at 16 hours in DMSO-treated cells (n=1024). […] A Wilcoxon matched pairs signed rank test was used to determine the p-value between DMSO control and Nu-7441-treated samples after DNA stimulation. Data represent the average of three independent treatments per condition. […]
Total RNA was added directly to lysis buffer from the SMART-Seq v4 Ultra Low Input RNA Kit for Sequencing (Takara), and reverse transcription was performed followed by PCR amplification to generate full length amplified cDNA. […] Libraries were pooled and quantified using a Qubit® Fluorometer (Life Technologies). Dual-index, single-read sequencing of pooled libraries was carried out on a HiSeq2500 sequencer (Illumina) with 58-base reads, using HiSeq™ v4 Cluster and SBS kits (IIlumina) with a target depth of 5 million reads per sample.

[5] = test system: IRF3 S386 phosphorylation; assay: Western blot of IRF3 pS386 in HEK 293 cells after DNA damage or stress agents; conditions: STING KO HEK 293 cells, up to 12 hours; 50 μM Etoposide, 500 nM Thapsigargin
[6] = test system: endoplasmic reticulum (ER) stress response; assay: Endoplasmic reticulum stress response in HEK 293 cells; conditions: 500 nM Thapsigargin, control

Structure (SMILES)	DNA-activated phosphorylation of the histone H2AX on serine 139 (γ-H2AX) [1]	SIDSP activation (IFNB1 mRNA expression) [2]	differentially expressed genes on which the inhibitor had a (mild) inhibitory effect (WT U937 cells; 16 hours post DNA transfection, 2 μM Nu-7441 vs vehicle, 718/1024 genes, FIG. 5D)	effect on gene expression in the absence of DNA stimulation (WT U937 cells; Lipo-treated, 2 μM, FIG. 8D)	RNA-activated RIG-I-MAVS pathway (IFNB1 mRNA expression) [3]	differentially expressed genes on which the inhibitor had an inhibitory effect ([4]; STING KO U937 cells, 16 hours post DNA transfection, 2 μM Nu-7441 vs vehicle, 1254/1327 genes, up- and downregulated, FIG. 5E)	effect on gene expression in the absence of DNA stimulation ([4]; STING KO U937 cells, Lipo-treated, 2 μM, FIG. 8E)	gene expression triggered by the SIDSP ([4]; summary statement in discussion)	DNA-activated antiviral response (IFNB1 mRNA expression) ([2]; DMSO or Nu-7441, FIG. 4C)	activation of IRF3 phosphorylation [5]	endoplasmic reticulum (ER) stress response [6]
C[C@@H]1CN(CC(=O)Nc2ccc3c(c2)Cc2cccc(-c4cc(=O)cc(N5CCOCC5)o4)c2S3)C[C@H](C)O1 [Ku-60019]	reduced the DNA-activated phosphorylation of the histone H2AX on serine 139 (γ-H2AX) in a concentration-dependent manner	unaffected									
O=c1cc(N2CCOCC2)oc2c(-c3cccc4c3sc3ccccc34)cccc12 [Nu-7441, 8-(dibenzo[b,d]thiophen-4-yl)-2-morpholino-4H-chromen-4-one]	reduced the DNA-activated phosphorylation of the histone H2AX on serine 139 (γ-H2AX) in a concentration-dependent manner	potently blocked	70.1%	no significant effect	had no effect	94.5%	no significant effect	potently reduced nearly all gene expression	blocked the DNA-activated antiviral response		
C/C=C(/C)C(=O)O[C@H]1C(C)=C2[C@H]([C@@H]1OC(=O)CCCCCCC)[C@@](C)(OC(C)=O)C[C@H](OC(=O)CCC)[C@@]1(O)[C@H]2OC(=O)[C@@]1(C)O [thapsigargin]										but not IRF3, HSPA8, or H2AX phosphorylation	induced a potent endoplasmic reticulum (ER) stress response
